Experiments:
recombinant human UBE2C [1] = molecular target: T1, recombinant human UBE2C (Homo sapiens, UniProt O00762); assay: ubiquitylation kit, ubiquitin chain / E2-Ub formation, Western blot; format: biochemical; details: 37 °C, 4 h; source of E2 not told
T1 sequence (O00762 2-179): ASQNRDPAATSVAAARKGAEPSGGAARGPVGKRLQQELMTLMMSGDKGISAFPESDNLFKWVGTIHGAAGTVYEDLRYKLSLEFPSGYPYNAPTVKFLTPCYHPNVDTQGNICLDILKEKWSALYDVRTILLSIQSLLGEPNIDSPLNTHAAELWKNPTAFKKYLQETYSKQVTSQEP

[2] = molecular target: T2, GFP-tagged UBE2C (pcDNA3.1-eGFP-UBE2C) (Homo sapiens, UniProt O00762); assay: CETSA, heated at […] °C for […] min; format: cell-based; details: cells treated with Halorotetin B 24 h before purification
T2 sequence (O00762 2-179): T1 sequence (O00762 2-179)

recombinant human UBE2C [3] = molecular target: T1, recombinant human UBE2C; assay: surface plasmon resonance, […] Langmuir fit; format: binding
[4] = molecular target: T3, UBE2C (endogenous, HCC cells) (Homo sapiens, UniProt O00762); assay: cellular thermal shift assay, Western blot; format: cell-based; details: 20 µM, 24 h
T3 construct: endogenous protein in hepatocellular carcinoma cells, detected by Western blot (anti-UBE2C EPR-23165-31)
T3 sequence (O00762 2-179): T1 sequence (O00762 2-179)

- Kd (recombinant human UBE2C [3]): 6.71 µM
Structure (SMILES): CC(=O)/C=C/C=C(/C)C#CC1=C(C)C[C@@H](O)CC1(C)C [Halorotetin B]
- ubiquitylation kit, ubiquitin chain / E2-Ub formation, Western blot (recombinant human UBE2C [1]): Halorotetin B significantly suppressed the enzymatic activity of UBE2C protein
- CETSA, heated at 77 °C for 10 min [2]: The thermal stabilization of wide type UBE2C and Ser51‐mutant UBE2C
- cellular thermal shift assay, Western blot [4]: UBE2C exhibited significant thermal stabilization upon Halorotetin B treatment

Source: PMC12948284, “Halorotetin B, A Novel Terpenoid Compound Derived from Marine Ascidian, Suppresses Tumor Growth by Targeting the Cell Cycle Regulator UBE2C” (Advanced Science, 2025)
